Data from patent US20230348369A1 (Cytokinetics, Inc., priority 2020, published 2023).
Like-named read-outs stand apart in the source and are kept apart here.

How the values were obtained:
endogenous NAMPT = target: T1, endogenous NAMPT (Homo sapiens, UniProt P43490); assay: Cellular NAD+ modulation assay in neuroblastoma SH-SY5Y cells; assay type: cell-based
T1 construct: stimulate the endogenous NAMPT in a native cellular environment; endogenous in cells; host or cells: SH-SY5Y neuroblastoma cells
T1 sequence (P43490 whole entry): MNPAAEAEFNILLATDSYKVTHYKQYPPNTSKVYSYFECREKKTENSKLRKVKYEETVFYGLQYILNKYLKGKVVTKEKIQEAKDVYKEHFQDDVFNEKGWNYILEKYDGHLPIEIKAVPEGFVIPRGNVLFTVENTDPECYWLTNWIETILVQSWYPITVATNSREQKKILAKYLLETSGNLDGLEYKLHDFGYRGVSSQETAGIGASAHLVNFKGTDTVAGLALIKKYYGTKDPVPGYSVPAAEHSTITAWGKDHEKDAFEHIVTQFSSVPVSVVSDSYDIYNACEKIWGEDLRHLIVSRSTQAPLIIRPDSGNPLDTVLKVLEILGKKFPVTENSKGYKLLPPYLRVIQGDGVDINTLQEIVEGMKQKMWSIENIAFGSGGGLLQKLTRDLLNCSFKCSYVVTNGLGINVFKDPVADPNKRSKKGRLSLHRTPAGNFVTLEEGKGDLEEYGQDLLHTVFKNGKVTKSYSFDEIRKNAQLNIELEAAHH
Description: The compounds described herein were also assayed for their ability to stimulate the endogenous NAMPT in a native cellular environment in the cellular NAD+ modulation assay, which measures the ability of the compound to modulate cellular NAD levels. Increased levels of NAD are expected by compounds that permeate the cells and activate the catalytic activity of the endogenous NAMPT.
Neuroblastoma SH-SY5Y cells were grown in 1:1 mixture of Eagle's Minimum Essential Medium and F12 Medium, along with 10% fetal bovine serum, in a humidified incubator with an atmosphere of 95% air and 5% CO2 at 37° C. The assays were initiated by plating 20 μL of SH-SY5Y cells in culture medium with 0.1% fetal bovine serum, at a density of 5000 cells per well to a 384-well Corning™ BioCoat™ Poly-D-Lysine Multiwell Plates. The plates were incubated in the 37° C. incubators for a period of 5 hours. Compounds in DMSO were added to the plates in a volume of 120 nL using the Labcyte Echo Liquid Handlers. […] The plates are then incubated for 40 hours. 30 μL of a readout-solution containing 0.2 U/mL Diaphorase enzyme, 40 uM resazurin, 10 uM FMN, 0.8 U/mL Alcohol dehydrogenase, 3% ethanol, 0.4 mg/mL bovine serum albumin, 0.2% Triton X-100 in 100 mM Tris-HCl, 30 mM EDTA, pH 8.4. The plates were read for fluorescence (Excitation/Emission=540 nm/590 nm) using an EnVision plate reader after 60 mins of incubation at ambient temperature.

human NAMPT = human NAMPT (Homo sapiens, UniProt P43490); assay: Human recombinant enzyme assay (NMN fluorescence biochemical assay, activation of NAMPT)
Sequence of human NAMPT (P43490 whole entry): as above
Method in brief: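 NMN production is detected fluorometrically (Ex 355/Em 460 nm) 40 min after acetophenone, KOH and formic acid derivatization. Reactions ran 60 min at ambient temperature: 6 nM human NAMPT, nicotinamide 150 μM, PRPP 20 μM, ATP 2.5 mM, buffered at pH 7.2 with 50 mM HEPES plus DTT, CHAPS, NaCl and 100 mM MgCl2.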

[1] = Table B, SH-SY5Y cells, cellular NAD levels, doxorubicin, 40 hours
[2] = Table B, SH-SY5Y cells, cellular NAD levels, doxorubicin, 40 hours, read-out: EC50
[3] = Table A, human recombinant NAMPT, NMN formation, 60 min
[4] = Table A, human recombinant NAMPT, NMN formation, 60 min, read-out: EC50 Human

| AC0.3 (endogenous NAMPT; [1]) | EC50 (endogenous NAMPT; [2]) | AC1.4 Human (human NAMPT; [3]) | EC50 (human NAMPT; [4]) | Compound | EC50 (endogenous NAMPT) | EC50 (human NAMPT) |
| --- | --- | --- | --- | --- | --- | --- |
| 8.2 µM | 6300 nM | 7.5 µM | 52.5 µM | COc1ccc(CNC(=O)NC2CC3(C2)CN(C(=O)c2ccnc(C)c2)C3)cc1 [Compound 140, 1-(4-methoxybenzyl)-3-(2-(2-methylisonicotinoyl)-2-azaspiro[3.3]heptan-6-yl)urea] |  |  |
| 0.1 µM | 100 nM | 0.3 µM | 0.5 µM | CN(C(=O)CCCCCNC(=O)NCc1ccc(Cl)cc1)c1ccccc1 [Compound 268, 6-(3-(4-chlorobenzyl)ureido)-N-methyl-N-phenylhexanamide] |  |  |
| 8.9 µM | 10000 nM | 8.2 µM | 34.3 µM | Cc1ncccc1C(=O)NC1CC2(CC(NC(=O)NCc3ccc(Cl)cc3)C2)C1 (stereo not drawn) [Compound 203, N-(6-(3-(4-chlorobenzyl)ureido)spiro[3.3]heptan-2-yl)-2-methylnicotinamide] |  |  |
| 2.4 µM | 4700 nM | 5.1 µM | 26.3 µM | COc1ccc(CNC(=O)NC2CC3(C2)CC(NC(=O)OC(C)(C)C)C3)cc1 (stereo not drawn) [Compound 7, tert-butyl (6-(3-(4-methoxybenzyl)ureido)spiro[3.3]heptan-2-yl)carbamate] |  |  |
| 1.6 µM | 1300 nM | 0.1 µM | 1.8 µM | NC(=O)c1ccc(CNC(=O)NCCCCC2CCN(C(=O)c3ccccc3)CC2)cc1 [Compound 19, 4-((3-(4-(1-benzoylpiperidin-4-yl)butyl)ureido)methyl)benzamide] |  |  |
| 0.4 µM | 13900 nM | 0.2 µM | 4.7 µM | COc1ccc(CNC(=O)NCCCCC2CCN(C(=O)c3ccccc3)CC2)cc1 [Compound 20, 1-(4-(1-benzoylpiperidin-4-yl)butyl)-3-(4-methoxybenzyl)urea] |  |  |
| >20.1 µM |  | 10.5 µM | 36.7 µM | Cc1ccc(C(=O)N2CC3(CC(NC(=O)NCc4ccc(=O)[nH]c4)C3)C2)cc1 [Compound 214, 1-(2-(4-methylbenzoyl)-2-azaspiro[3.3]heptan-6-yl)-3-((6-oxo-1,6-dihydropyridin-3-yl)methyl)urea] |  |  |
| 0.8 µM | 800 nM | 1.2 µM | 7.7 µM | COc1ccc(CNC(=O)NC2CC3(C2)CC(C(=O)N2Cc4ccccc4C2)C3)cc1 (stereo not drawn) [Compound 73, 1-(6-(isoindoline-2-carbonyl)spiro[3.3]heptan-2-yl)-3-(4-methoxybenzyl)urea] |  |  |
| 11.6 µM | 12900 nM | 12.6 µM | 40.1 µM | Cc1ccc(C(=O)N2CC[C@]3(C2)C[C@H](NC(=O)NCc2ccc(Cl)cc2)C3)cc1 [Compound 164, 1-(4-chlorobenzyl)-3-((2s,4r)-6-(4-methylbenzoyl)-6-azaspiro[3.4]octan-2-yl)urea] |  |  |
| >20.1 µM | ≥ 20100 nM | 2.7 µM | 35.3 µM | NC(=O)c1ccc(CNC(=O)NC2CC3(C2)CC(NC(=O)c2ccccc2)C3)cc1 (stereo not drawn) [Compound 14, N-(6-(3-(4-carbamoylbenzyl)ureido)spiro[3.3]heptan-2-yl)benzamide] |  |  |
| 0.3 µM | 300 nM | 1.0 µM | 2 µM | O=C(NCCCCC(=O)N1CCCc2ccccc21)NCc1ccc(Cl)cc1 [Compound 256, 1-(4-chlorobenzyl)-3-(5-(3,4-dihydroquinolin-1(2H)-yl)-5-oxopentyl)urea] |  |  |
| 0.9 µM | 800 nM | 0.3 µM | 5.1 µM | COc1ccc(CNC(=O)NC2CC3(C2)CC(C(=O)N2CCCc4cnccc42)C3)cc1 (stereo not drawn) [Compound 90, 1-(4-methoxybenzyl)-3-(6-(1,2,3,4-tetrahydro-1,6-naphthyridine-1-carbonyl)spiro[3.3]heptan-2-yl)urea] |  |  |
| 0.3 µM | 1000 nM | 0.1 µM | 4.4 µM | CN(C(=O)CCCCCNC(=O)NCc1cn[nH]c1)c1ccccc1F [Compound 287, 6-(3-((1H-pyrazol-4-yl)methyl)ureido)-N-(2-fluorophenyl)-N-methylhexanamide] |  |  |
| 0.5 µM | 600 nM | 0.9 µM | 2.2 µM | CN(C(=O)[C@H]1C[C@@]2(C[C@H](NC(=O)NCc3ccc(Cl)cc3)C2)C1)C1CCOC1 (stereo partly drawn) [Compound 202, (2S,4s,6S)-6-(3-(4-chlorobenzyl)ureido)-N-methyl-N-((R)-tetrahydrofuran-3-yl)spiro[3.3]heptane-2-carboxamide] |  |  |
| 1.1 µM | 3100 nM | 1.4 µM | 45.3 µM | COc1ccc(CNC(=O)NC2CC3(C2)CN(C(=O)c2ccc(C)cc2)C3)cc1 [Compound 145, 1-(4-methoxybenzyl)-3-(2-(4-methylbenzoyl)-2-azaspiro[3.3]heptan-6-yl)urea] |  |  |
| 9.7 µM | 9000 nM | 1.9 µM | 49.9 µM | Cc1ccc(C(=O)N2CC3(CC(NC(=O)NCc4ccncc4)C3)C2)cc1 [Compound 210, 1-(2-(4-methylbenzoyl)-2-azaspiro[3.3]heptan-6-yl)-3-(pyridin-4-ylmethyl)urea] |  |  |
| 0.2 µM | 500 nM | 2.2 µM | 4.3 µM | Cc1ccc(C(=O)N2CC3(CC(NC(=O)NCc4ccc(Cl)cc4)C3)C2)cc1 [Compound 206, 1-(4-chlorobenzyl)-3-(2-(4-methylbenzoyl)-2-azaspiro[3.3]heptan-6-yl)urea] |  |  |
| 0.3 µM | 800 nM | 7.5 µM | 15.7 µM | Cc1cccc(C(=O)N2CC[C@]3(C2)C[C@@H](NC(=O)NCc2ccc(Cl)cc2)C3)c1 [Compound 161, 1-(4-chlorobenzyl)-3-((2r,4s)-6-(3-methylbenzoyl)-6-azaspiro[3.4]octan-2-yl)urea] |  |  |
|  | 8400 nM |  | 19.8 µM | CC(C)(C)OC(=O)N1CCC2(CC1)CC2CNC(=O)NCc1ccc(C(N)=O)cc1 (stereo not drawn) [Compound 33, tert-butyl 1-((3-(4-carbamoylbenzyl)ureido)methyl)-6-azaspiro[2.5]octane-6-carboxylate] |  |  |
| 5.3 µM | 12700 nM | 0.1 µM | 2.8 µM | COc1ccc(CNC(=O)NC2CC3(C2)CC(C(=O)N2CCCc4cc(C)ccc42)C3)cc1 (stereo not drawn) [Compound 84, 1-(4-methoxybenzyl)-3-(6-(6-methyl-1,2,3,4-tetrahydroquinoline-1-carbonyl)spiro[3.3]heptan-2-yl)urea] |  |  |
| 0.3 µM | 300 nM | 0.1 µM | 1.5 µM | [2H]C([2H])(CCCC1CCN(C(=O)c2ccccc2)CC1)NC(=O)NCc1cnco1 [Compound 293, 1-(4-(1-benzoylpiperidin-4-yl)butyl-1,1-d2)-3-(oxazol-5-ylmethyl)urea] |  |  |
| 0.3 µM | 500 nM | 0.8 µM | 13.3 µM | COc1ccc(CNC(=O)NC2CC3(C2)CC(C(=O)N2CCc4ccccc42)C3)cc1 (stereo not drawn) [Compound 74, 1-(6-(indoline-1-carbonyl)spiro[3.3]heptan-2-yl)-3-(4-methoxybenzyl)urea] |  |  |
|  |  |  |  | CC(C)(C)OC(=O)N1CCC2(CC1)CC2CNC(=O)NCc1ccc(Cl)cc1 (stereo not drawn) [Compound 27, tert-butyl 1-((3-(4-chlorobenzyl)ureido)methyl)-6-azaspiro[2.5]octane-6-carboxylate] | 5800 nM | 21.5 µM |
| 0.3 µM | 900 nM | 0.1 µM | 1.5 µM | COc1ccc(CNC(=O)NC2CC3(C2)CC(C(=O)N2CCCc4ccccc42)C3)cc1 (stereo not drawn) [Compound 71, 1-(4-methoxybenzyl)-3-(6-(1,2,3,4-tetrahydroquinoline-1-carbonyl)spiro[3.3]heptan-2-yl)urea] |  |  |

| Compound | AC0.3 (endogenous NAMPT; [1]) | EC50 (endogenous NAMPT; [2]) | AC1.4 Human (human NAMPT; [3]) | EC50 (human NAMPT; [4]) | EC50 (endogenous NAMPT) | EC50 (human NAMPT) |
| --- | --- | --- | --- | --- | --- | --- |
| CC(C)(O)CN1CCN(C(=O)C2CC3(CC(NC(=O)NCc4ccc(Cl)cc4)C3)C2)CC1 (stereo not drawn) [Compound 110] | 0.5 µM |  | 0.7 µM |  | 300 nM | 3.9 µM |
| COc1ccc(CNC(=O)NCCCCCOc2ccccc2)cc1 [Compound 149, 1-(4-methoxybenzyl)-3-(5-phenoxypentyl)urea] | 0.6 µM | 1100 nM | 0.3 µM | 4.9 µM |  |  |
